Active and inactive are the calls of the source.
How the values were obtained:
[1] = molecular target: T1, Sphingosine 1-phosphate receptor 2 (Homo sapiens, UniProt O95136); assay: Dose Response Cell-Based Assay for Agonists of the Sphingosine 1-Phosphate Receptor 2 (S1P2): Purchased Analogues. [Related pubchem assays: 1192, 373, 439 ]; format: functional
[2] = molecular target: Sphingosine 1-phosphate receptor 1 (Homo sapiens, UniProt P21453); assay: Dose Response Cell-Based Assay for Agonists of the Sphingosine 1-Phosphate Receptor 1 (S1P1): Purchased Analogues. [Related pubchem assays: 1192, 373, 439 ]; format: functional
Sequence of Sphingosine 1-phosphate receptor 1 (P21453 whole entry): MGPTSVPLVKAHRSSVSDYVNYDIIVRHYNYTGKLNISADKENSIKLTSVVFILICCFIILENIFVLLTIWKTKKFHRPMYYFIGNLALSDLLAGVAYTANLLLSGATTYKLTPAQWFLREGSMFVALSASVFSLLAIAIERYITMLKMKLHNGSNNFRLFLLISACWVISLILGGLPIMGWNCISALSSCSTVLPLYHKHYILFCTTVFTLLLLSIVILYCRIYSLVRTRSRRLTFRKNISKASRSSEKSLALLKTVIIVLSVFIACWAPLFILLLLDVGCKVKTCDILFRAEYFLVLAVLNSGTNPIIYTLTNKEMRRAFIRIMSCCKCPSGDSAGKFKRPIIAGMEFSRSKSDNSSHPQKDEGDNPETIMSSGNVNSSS

[3] = molecular target: Sphingosine 1-phosphate receptor 3 (Homo sapiens, UniProt Q99500); assay: Dose Response Cell-Based Assay for Agonists of the Sphingosine 1-Phosphate Receptor 3 (S1P3): Purchased Analogues. [Related pubchem assays: 373, 439 ]; format: functional
Sequence of Sphingosine 1-phosphate receptor 3 (Q99500 whole entry): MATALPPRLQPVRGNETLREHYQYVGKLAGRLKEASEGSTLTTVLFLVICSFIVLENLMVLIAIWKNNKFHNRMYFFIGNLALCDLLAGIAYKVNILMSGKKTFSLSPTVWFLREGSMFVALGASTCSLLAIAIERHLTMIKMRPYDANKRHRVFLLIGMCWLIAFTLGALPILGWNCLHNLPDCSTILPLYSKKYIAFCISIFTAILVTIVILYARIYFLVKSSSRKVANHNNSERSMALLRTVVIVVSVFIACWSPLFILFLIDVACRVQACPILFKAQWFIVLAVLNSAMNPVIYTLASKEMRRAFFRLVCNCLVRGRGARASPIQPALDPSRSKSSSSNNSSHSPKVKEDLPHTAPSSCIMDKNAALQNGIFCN

[4] = molecular target: DNA damage-inducible transcript 3 protein (Mus musculus, UniProt P35639); format: functional, Cricetulus griseus
Sequence of DNA damage-inducible transcript 3 protein (P35639 whole entry): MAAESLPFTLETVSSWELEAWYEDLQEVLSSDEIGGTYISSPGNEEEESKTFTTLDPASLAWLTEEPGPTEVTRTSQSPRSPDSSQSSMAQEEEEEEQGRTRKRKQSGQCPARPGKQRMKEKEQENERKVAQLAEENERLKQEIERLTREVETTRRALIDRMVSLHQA

[5] = molecular target: X-box-binding protein 1 (Homo sapiens, UniProt P17861); format: functional, Cricetulus griseus;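 note: confirmatory dose-response counter-screen serving a CHOP assay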
Sequence of X-box-binding protein 1 (P17861 whole entry): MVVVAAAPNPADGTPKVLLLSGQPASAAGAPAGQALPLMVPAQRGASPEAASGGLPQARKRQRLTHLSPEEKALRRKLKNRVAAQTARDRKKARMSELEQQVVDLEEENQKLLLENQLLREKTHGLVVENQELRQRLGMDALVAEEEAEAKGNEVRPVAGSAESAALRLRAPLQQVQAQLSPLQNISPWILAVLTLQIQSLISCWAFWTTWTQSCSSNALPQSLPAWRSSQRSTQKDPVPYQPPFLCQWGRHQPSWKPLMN

[6] = molecular target: T1, Sphingosine 1-phosphate receptor 2; assay: Late-stage fluorescence-based dose-response cell-based counterscreen assay to identify agonists of the Sphingosine 1-Phosphate Receptor 3 (S1P3): Sphingosine 1-Phosphate Receptor 2 (S1P2) agonist assay.; format: functional
[7] = molecular target: Sphingosine 1-phosphate receptor 4 (Homo sapiens, UniProt O95977); assay: Late-stage fluorescence-based dose-response cell-based counterscreen assay to identify agonists of the Sphingosine 1-Phosphate Receptor 3 (S1P3): Sphingosine 1-Phosphate Receptor 4 (S1P4) agonist assay.; format: functional
Sequence of Sphingosine 1-phosphate receptor 4 (O95977 whole entry): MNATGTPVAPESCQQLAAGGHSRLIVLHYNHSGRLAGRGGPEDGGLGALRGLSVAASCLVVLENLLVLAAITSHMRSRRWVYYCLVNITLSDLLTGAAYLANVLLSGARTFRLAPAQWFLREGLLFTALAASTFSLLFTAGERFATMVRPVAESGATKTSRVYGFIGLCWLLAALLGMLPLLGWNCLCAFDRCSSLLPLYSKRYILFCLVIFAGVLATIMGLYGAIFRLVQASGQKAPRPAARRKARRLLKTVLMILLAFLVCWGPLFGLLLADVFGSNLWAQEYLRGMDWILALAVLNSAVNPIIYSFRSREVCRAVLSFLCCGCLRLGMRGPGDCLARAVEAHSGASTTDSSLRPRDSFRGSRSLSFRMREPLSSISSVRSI

[8] = viability of uninfected HEp-2 cells – cell-based, HTS, cytotoxicity control for RSV inhibitor project, dose response (AID 2410); format: functional; settings: human respiratory syncytial virus
[9] = Luminescence Cell-Based Dose Retest to Confirm Inhibitors of Cancer Stem Cells. [Related pubchem assays (depositor defined):AID2717, AID2721]; format: functional; settings: Homo sapiens
[10] = molecular target: Neurotensin receptor type 1 (Homo sapiens, UniProt P30989); format: functional;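 note: Image-based confirmatory dose-response assay measuring agonist activity at NTR1; NTR1-expressing U2OS osteosarcoma cells imaged for beta-arrestin GFP spot formation; agonist potency where compounds increase beta-arrestin recruitment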
Sequence of Neurotensin receptor type 1 (P30989 whole entry): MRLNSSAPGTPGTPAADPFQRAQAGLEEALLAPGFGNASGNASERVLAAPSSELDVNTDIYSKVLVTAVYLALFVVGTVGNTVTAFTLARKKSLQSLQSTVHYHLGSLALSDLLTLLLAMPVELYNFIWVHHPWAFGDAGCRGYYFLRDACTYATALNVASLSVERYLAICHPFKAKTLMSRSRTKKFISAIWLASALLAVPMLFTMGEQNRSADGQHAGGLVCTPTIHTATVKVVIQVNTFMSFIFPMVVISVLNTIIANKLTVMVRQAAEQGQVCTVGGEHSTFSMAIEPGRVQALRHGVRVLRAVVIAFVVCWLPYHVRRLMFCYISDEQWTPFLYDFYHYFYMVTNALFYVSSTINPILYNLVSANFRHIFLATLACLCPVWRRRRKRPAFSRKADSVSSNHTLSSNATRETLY

[11] = molecular target: T2, Caspase-3 (Homo sapiens, UniProt P42574); assay: inhibition of recombinant caspase-3 activity – biochemical, luminescence, set 2, selectivity assay for SENP protease inhibitor project, SAR follow-up (AID 588599); format: functional
T2 sequence (P42574 whole entry): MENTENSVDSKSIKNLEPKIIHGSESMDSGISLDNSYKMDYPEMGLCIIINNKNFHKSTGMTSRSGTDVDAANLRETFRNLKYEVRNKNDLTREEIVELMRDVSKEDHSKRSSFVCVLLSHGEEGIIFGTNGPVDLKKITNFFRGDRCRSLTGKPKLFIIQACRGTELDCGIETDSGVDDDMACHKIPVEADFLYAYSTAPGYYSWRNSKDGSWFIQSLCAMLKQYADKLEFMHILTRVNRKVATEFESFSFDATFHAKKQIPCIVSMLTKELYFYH

[12] = molecular target: T3, Sentrin-specific protease 8 (Homo sapiens, UniProt Q96LD8); assay: inhibition of sentrin protease 8 – biochemical, luminescence, set 2, SAR follow-up (AID 588601); format: functional
T3 sequence (Q96LD8 whole entry): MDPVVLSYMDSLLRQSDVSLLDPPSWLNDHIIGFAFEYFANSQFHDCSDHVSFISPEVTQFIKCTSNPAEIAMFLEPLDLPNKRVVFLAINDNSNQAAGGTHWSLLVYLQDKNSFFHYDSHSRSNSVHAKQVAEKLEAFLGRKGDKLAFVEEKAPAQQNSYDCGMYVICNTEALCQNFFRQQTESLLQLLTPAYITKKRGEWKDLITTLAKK

[13] = molecular target: T4, Sentrin-specific protease 7 (Homo sapiens, UniProt Q9BQF6); assay: inhibition of human SENP7 cleavage activity – biochemical, luminescence, set 2, SAR follow-up (AID 588600); format: functional
T4 sequence (Q9BQF6 whole entry): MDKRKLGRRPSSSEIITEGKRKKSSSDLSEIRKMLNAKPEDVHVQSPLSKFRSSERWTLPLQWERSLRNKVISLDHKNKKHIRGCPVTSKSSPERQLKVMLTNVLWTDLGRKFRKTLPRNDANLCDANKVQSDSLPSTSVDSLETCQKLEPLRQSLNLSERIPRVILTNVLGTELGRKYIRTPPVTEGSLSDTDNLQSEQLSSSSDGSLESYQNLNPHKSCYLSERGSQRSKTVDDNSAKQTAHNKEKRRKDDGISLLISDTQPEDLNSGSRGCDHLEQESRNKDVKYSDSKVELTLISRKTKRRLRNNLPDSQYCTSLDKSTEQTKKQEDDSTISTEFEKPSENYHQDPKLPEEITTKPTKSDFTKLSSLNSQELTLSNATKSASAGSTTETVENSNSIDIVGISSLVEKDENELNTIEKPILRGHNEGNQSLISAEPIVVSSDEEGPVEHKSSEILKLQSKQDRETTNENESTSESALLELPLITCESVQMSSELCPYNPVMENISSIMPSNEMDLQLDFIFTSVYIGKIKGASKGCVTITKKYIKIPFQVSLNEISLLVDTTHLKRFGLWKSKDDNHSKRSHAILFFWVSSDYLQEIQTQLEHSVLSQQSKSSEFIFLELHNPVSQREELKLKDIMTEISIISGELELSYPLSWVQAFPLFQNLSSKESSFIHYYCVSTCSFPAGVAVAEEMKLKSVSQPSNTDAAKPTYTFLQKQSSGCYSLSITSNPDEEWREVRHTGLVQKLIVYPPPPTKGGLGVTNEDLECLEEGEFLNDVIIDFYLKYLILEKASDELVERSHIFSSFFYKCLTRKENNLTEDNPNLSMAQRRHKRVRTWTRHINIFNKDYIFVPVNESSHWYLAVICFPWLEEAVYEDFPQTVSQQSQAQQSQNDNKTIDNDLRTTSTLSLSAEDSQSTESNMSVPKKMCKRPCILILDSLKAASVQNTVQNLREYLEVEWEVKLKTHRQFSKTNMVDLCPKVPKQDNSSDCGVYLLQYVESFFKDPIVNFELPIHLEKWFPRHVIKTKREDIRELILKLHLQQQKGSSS

[14] = molecular target: T5, Sentrin-specific protease 6 (Homo sapiens, UniProt Q9GZR1); assay: inhibition of human SENP6 catalytic domain – biochemical, luminescence, set 2, SAR follow-up (AID 588598); format: functional
T5 sequence (Q9GZR1 whole entry): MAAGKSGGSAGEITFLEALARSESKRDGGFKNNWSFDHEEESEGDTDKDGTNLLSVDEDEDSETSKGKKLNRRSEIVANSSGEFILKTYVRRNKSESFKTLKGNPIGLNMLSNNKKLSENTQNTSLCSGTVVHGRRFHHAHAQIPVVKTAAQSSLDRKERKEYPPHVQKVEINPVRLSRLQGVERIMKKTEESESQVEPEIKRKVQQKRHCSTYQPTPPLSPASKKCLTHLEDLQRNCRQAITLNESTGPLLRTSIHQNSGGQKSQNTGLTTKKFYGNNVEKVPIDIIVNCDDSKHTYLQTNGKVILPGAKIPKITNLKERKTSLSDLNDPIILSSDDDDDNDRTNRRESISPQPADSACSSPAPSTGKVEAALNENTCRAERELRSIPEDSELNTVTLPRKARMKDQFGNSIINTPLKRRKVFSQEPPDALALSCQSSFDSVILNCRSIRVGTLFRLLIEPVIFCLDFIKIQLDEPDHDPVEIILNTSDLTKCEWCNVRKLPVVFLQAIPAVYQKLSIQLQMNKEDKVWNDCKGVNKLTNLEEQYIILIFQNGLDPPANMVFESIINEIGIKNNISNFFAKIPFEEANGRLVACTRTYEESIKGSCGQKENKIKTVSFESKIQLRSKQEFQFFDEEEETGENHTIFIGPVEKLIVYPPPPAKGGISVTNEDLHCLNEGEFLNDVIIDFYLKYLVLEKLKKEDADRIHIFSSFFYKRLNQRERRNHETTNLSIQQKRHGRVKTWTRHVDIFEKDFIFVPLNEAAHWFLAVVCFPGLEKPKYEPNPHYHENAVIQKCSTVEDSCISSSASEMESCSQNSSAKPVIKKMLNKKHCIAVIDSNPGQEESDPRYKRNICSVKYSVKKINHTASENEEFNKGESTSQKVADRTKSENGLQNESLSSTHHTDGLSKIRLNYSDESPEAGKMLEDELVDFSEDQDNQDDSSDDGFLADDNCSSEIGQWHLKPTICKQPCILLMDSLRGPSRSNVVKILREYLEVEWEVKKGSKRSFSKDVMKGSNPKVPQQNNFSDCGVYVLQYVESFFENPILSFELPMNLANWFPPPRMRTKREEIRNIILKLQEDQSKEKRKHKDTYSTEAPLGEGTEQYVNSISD

[15] = molecular target: Melanocortin receptor 4 (Homo sapiens, UniProt P32245); format: functional, cell-based;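 note: Cell-based assay with luminescence read-out, confirmatory dose-response testing for agonist activity of biased ligands at MC4R; human U2OS cells with tagged receptor and beta-arrestin; potency of agonists that increase receptor coupling to beta-arrestin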
Sequence of Melanocortin receptor 4 (P32245 whole entry): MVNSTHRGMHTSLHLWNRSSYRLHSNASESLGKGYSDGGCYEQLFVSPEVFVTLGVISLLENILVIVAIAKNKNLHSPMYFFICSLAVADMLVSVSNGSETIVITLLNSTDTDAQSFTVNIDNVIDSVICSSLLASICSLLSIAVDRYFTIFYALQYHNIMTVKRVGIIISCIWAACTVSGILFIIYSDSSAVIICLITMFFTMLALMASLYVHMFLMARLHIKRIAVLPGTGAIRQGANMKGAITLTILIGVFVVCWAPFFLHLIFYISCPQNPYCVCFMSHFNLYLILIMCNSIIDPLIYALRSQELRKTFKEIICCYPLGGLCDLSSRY

[16] = molecular target: DNA dC->dU-editing enzyme APOBEC-3G (Homo sapiens, UniProt Q9HC16); assay: inhibition of APOBEC3G ssDNA deamination – biochemical, fluorescence, single-stranded DNA substrate, SAR follow-up (AID 602136); format: functional; settings: read-out: IC50_Mean
Sequence of DNA dC->dU-editing enzyme APOBEC-3G (Q9HC16 whole entry): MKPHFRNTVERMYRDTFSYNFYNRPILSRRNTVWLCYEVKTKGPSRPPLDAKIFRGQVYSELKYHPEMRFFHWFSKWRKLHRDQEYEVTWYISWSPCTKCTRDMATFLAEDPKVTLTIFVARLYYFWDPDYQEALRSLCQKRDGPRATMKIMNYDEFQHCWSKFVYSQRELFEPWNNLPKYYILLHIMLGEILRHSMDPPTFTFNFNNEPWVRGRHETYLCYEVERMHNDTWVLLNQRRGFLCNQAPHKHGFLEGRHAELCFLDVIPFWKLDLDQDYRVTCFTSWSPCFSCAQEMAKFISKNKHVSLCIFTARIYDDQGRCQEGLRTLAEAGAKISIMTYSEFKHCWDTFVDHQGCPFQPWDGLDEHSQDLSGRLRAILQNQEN

[17] = molecular target: DNA dC->dU-editing enzyme APOBEC-3A (Homo sapiens, UniProt P31941); assay: SAR analysis of small molecule inhibitors of APOBEC3A DNA Deaminase via a fluorescence-based single-stranded DNA deaminase assay.; format: functional; settings: read-out: IC50_Mean
Sequence of DNA dC->dU-editing enzyme APOBEC-3A (P31941 whole entry): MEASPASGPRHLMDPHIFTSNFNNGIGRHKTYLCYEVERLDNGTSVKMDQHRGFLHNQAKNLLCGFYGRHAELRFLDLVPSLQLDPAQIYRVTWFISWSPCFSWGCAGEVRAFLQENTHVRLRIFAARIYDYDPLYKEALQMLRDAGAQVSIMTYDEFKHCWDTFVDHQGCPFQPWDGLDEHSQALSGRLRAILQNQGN

[18] = molecular target: T6, Neuropeptides B/W receptor type 1 (Homo sapiens, UniProt P48145); assay: human NPBW1 receptor blockade, IC50 – cell-based, fluorescence, dose response, set 5, late-stage follow-up (AID 588566); format: functional
T6 sequence (P48145 whole entry): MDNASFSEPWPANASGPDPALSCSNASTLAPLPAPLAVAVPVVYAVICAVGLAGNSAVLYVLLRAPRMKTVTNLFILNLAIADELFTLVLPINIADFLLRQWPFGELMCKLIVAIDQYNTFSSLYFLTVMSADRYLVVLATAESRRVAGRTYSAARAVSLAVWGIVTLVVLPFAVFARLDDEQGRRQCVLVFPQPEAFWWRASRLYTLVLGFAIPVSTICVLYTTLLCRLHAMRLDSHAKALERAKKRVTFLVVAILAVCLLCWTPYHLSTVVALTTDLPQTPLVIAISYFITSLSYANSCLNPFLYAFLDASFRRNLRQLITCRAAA

[19] = molecular target: T7, Melanin-concentrating hormone receptor 1 (Homo sapiens, UniProt Q99705); assay: Late-stage fluorescence-based counterscreen for antagonists of the G-protein coupled receptor 7 (GPR7): cell-based dose response assay to identify antagonists of the melanin-concentrating hormone receptor 1 (MCHR1) Set 5.; format: functional
T7 sequence (Q99705 whole entry): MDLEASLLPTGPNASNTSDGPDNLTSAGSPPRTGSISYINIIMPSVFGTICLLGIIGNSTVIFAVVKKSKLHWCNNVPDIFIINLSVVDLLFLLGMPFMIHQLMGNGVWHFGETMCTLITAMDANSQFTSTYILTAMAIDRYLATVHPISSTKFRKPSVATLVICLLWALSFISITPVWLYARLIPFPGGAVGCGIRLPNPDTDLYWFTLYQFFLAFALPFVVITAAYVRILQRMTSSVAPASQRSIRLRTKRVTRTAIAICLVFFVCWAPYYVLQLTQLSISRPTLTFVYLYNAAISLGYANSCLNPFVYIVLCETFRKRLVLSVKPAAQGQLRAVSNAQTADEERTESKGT

[20] = molecular target: T7, Melanin-concentrating hormone receptor 1; assay: Late-stage fluorescence-based counterscreen for antagonists of the G-protein coupled receptor 7 (GPR7): cell-based dose response assay to identify antagonists of the melanin-concentrating hormone receptor 1 (MCHR1) Set 6.; format: functional
[21] = molecular target: T6, Neuropeptides B/W receptor type 1; assay: human NPBW1 receptor blockade, IC50 – cell-based, fluorescence, dose response, set 6, late-stage follow-up (AID 588583); format: functional
[22] = molecular target: Latent membrane protein 1 (Human herpesvirus 4 (strain B95-8), UniProt P03230); assay: LMP1 TES1 pathway selectivity over dsRED control – imaging, HEK293T, dual-color eGFP/dsRED, cherry-picks, selectivity assay for LMP1 NF-kB inhibitor project, dose response (AID 588398); format: functional, cell-based
Sequence of Latent membrane protein 1 (P03230 whole entry): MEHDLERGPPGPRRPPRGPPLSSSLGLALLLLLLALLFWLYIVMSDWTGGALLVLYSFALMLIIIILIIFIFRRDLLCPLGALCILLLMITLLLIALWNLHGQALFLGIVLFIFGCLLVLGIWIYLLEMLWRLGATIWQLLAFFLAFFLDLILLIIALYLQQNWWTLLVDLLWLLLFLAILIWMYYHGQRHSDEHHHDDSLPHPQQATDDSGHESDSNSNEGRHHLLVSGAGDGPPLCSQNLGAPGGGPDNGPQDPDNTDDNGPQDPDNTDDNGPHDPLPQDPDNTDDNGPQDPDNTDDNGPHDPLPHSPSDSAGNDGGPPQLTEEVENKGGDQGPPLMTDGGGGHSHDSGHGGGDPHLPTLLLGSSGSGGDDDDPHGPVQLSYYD

T1 sequence (O95136 whole entry): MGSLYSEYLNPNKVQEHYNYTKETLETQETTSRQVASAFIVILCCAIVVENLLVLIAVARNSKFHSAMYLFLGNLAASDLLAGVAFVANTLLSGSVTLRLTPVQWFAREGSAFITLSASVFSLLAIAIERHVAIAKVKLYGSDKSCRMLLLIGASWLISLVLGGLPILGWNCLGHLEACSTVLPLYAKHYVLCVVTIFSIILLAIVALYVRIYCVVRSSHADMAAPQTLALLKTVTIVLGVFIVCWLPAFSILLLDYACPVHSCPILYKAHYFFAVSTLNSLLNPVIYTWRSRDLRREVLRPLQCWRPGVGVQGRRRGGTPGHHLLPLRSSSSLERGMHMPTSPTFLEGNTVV

With CCCc1cc(C(=O)N(C2CCCCC2)C2CCCCC2)no1 the EC50 [1] was > 10 µM (not active), the EC50 [2] was > 50 µM (not active) and the EC50 [3] was 0.243 µM (active). The “Absolute IC50 (CHOP)” value [4] was 10 µM, the “Absolute IC50 (XBP1)” value [5] was 10 µM and the EC50 [6] was > 50 µM (inactive). The EC50 [7] was > 50 µM (inactive).

For O=C(N/N=C/c1c[nH]c2ccccc12)C1CC1(c1ccccc1)c1ccccc1 (configuration not stated), the CC50 [8] was 16 µM (active), the AC50 [9] was 4.64 µM (active) and the EC50 [10] was 12.3 µM (active). For the same compound, the IC50 [11] was > 99 µM (inactive), the IC50 [12] was > 99 µM (inactive) and the IC50 [13] was > 99 µM (inactive). The IC50 [14] was > 99 µM (inactive) and the EC50 [15] was > 89.2 µM (inactive).

For O=C(CSc1nc2cccnc2[nH]1)Nc1cccc(Br)c1, the IC50 [16] was > 99 µM (inactive) and the IC50 [17] was > 99 µM (inactive).

For CCOc1ccc(C(C#N)c2c(Cl)cnn(Cc3cccc4ccccc34)c2=O)cc1 (configuration not stated), the IC50 [18] was 0.234 µM (active) and the IC50 [19] was > 20 µM (inactive).

In the case of N#CC(c1c(F)cccc1Cl)c1c(Cl)cnn(Cc2cccc3ccccc23)c1=O (configuration not stated), the IC50 [20] is reported as 0.706 µM (active) and the IC50 [21] is reported as 0.706 µM (active).

In the case of CCN1C(=O)[C@@H]2[C@@H](c3ccc(-c4ccc(Cl)c(Cl)c4)cc3)N3CCC[C@@]3(C(=O)OC)[C@@H]2C1=O, the AC50 [22] is reported as 70.2 µM (active).

From ChEMBL document CHEMBL1201862, “PubChem BioAssay data set” (2004)
